Active and inactive are the calls of the source. The calls are words filed in the database; no cut-off is given here.
Assays:
[1] = target: T1, Polyunsaturated fatty acid 5-lipoxygenase (Homo sapiens) (UniProt P09917); experiment: Inhibition of human 5-lipoxygenase at 10 uM using arachidonic acid as substrate pretreated for 10 mins followed by substrate and ATP addition and measured after 20 mins by […] probe based fluorescence assay relative to control
T1 sequence (whole entry): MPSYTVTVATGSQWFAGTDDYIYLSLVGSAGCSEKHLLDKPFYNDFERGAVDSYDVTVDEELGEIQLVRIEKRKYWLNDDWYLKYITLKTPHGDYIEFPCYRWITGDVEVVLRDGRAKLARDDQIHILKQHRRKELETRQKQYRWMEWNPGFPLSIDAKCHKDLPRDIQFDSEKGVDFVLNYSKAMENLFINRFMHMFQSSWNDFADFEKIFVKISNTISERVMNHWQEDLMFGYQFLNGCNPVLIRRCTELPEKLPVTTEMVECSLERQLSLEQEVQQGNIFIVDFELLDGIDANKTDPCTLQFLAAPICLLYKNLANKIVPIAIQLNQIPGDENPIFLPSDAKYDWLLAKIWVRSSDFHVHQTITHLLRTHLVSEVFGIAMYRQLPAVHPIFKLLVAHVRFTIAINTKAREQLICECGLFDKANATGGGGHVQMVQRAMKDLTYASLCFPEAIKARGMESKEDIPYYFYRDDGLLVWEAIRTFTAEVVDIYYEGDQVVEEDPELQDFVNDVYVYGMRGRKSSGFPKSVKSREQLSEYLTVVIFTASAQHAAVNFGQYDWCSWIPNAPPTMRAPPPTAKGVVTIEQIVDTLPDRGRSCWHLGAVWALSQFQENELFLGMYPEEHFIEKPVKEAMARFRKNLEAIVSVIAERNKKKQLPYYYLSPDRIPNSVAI

[2] = target: T2, Amine oxidase [flavin-containing] B (Homo sapiens, UniProt P27338); experiment: biochemical; format: cell-based
T2 sequence (P27338 whole entry): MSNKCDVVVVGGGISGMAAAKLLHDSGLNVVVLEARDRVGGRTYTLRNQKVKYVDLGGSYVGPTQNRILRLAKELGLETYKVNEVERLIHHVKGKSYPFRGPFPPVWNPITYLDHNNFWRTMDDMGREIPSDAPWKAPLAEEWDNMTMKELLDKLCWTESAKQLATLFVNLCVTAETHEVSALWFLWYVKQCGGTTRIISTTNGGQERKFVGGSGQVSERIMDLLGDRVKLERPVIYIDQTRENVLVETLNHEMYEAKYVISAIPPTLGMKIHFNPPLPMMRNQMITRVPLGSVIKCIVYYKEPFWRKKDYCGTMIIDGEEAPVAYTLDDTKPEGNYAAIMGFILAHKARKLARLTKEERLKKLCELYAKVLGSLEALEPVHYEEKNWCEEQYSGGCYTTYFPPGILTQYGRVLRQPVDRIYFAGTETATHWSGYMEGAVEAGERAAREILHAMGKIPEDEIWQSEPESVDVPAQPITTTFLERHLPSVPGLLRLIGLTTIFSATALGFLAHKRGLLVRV
Description: Inhibition of recombinant human MAO-B expressed in baculovirus infected BTI insect cells using p-tyramine as substrate pretreated for 15 mins followed by substrate addition by horse-radish peroxidase/amplex red-based fluorescence method

Acetylcholinesterase [3] = target: T3, Acetylcholinesterase (Homo sapiens, UniProt P22303); experiment: Inhibition of recombinant human AChE expressed in HEK293 cells using acetylthiocholine iodide as substrate pretreated for 5 mins followed by substrate addition and measured for 5 mins by Ellman's method
T3 sequence (P22303 whole entry): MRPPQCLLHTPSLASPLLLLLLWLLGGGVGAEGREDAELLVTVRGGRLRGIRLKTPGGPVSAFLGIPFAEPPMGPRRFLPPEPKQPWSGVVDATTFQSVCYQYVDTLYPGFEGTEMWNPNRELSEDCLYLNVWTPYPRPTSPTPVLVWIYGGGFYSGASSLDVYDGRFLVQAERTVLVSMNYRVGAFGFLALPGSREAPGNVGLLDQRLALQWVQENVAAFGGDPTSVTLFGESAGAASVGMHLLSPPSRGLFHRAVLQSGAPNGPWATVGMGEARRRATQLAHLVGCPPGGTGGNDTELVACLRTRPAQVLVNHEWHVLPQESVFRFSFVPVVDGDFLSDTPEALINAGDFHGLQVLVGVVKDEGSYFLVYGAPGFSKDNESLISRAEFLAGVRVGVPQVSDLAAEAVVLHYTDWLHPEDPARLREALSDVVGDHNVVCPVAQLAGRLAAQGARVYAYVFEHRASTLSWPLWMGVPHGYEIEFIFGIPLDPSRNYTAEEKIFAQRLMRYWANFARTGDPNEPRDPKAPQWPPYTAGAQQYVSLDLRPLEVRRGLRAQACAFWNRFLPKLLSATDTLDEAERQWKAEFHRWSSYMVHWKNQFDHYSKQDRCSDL

in vitro = details: PAMPA, pH 7.4
Description: Permeability of the compound in pH 7.4 PBS by PAMPA-BBB assay

Homo sapiens = species on record: Homo sapiens; experiment: Selectivity index, ratio of IC50 for human serum BuChE to IC50 for recombinant human AChE expressed in HEK293 cells; format: cell-based
[4] = target: T4, Amine oxidase [flavin-containing] A (Homo sapiens, UniProt P21397); experiment: Inhibition of recombinant human MAO-A expressed in baculovirus infected BTI insect cells using p-tyramine as substrate pretreated for 15 mins followed by substrate addition by horse-radish peroxidase/amplex red-based fluorescence method
T4 sequence (P21397 whole entry): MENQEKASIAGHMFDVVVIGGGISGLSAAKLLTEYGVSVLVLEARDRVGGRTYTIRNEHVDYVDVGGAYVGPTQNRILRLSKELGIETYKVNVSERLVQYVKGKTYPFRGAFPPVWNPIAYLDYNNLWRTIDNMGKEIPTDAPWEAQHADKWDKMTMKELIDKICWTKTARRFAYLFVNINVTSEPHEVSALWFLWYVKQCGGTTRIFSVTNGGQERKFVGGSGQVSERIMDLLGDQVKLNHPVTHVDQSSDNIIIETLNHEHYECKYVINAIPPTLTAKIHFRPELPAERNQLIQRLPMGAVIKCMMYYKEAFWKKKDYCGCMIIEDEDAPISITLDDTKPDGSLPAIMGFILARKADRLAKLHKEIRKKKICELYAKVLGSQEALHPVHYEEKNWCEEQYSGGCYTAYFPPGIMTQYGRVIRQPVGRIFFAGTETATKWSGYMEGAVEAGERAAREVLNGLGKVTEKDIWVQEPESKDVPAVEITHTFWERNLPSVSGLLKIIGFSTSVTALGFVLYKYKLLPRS

[5] = target: T5, Polyunsaturated fatty acid 5-lipoxygenase (Homo sapiens, UniProt P09917); experiment: Inhibition of human 5-lipoxygenase using arachidonic acid as substrate pretreated for 10 mins followed by substrate and ATP addition and measured after 20 mins by H2DCFDA probe based fluorescence assay
T5 sequence (P09917 whole entry): T1 sequence (whole entry)

Acetylcholinesterase [6] = target: T3, Acetylcholinesterase; experiment: Inhibition of recombinant human AChE expressed in HEK293 cells using varying levels of acetylthiocholine iodide as substrate by Lineweaver-burk plot analysis
Cholinesterase = Cholinesterase (Homo sapiens, UniProt P06276); experiment: Inhibition of human serum BuChE using butyrylthiocholine as substrate pretreated for 5 mins followed by substrate addition and measured for 5 mins by Ellman's method
Cholinesterase, sequence (P06276 whole entry): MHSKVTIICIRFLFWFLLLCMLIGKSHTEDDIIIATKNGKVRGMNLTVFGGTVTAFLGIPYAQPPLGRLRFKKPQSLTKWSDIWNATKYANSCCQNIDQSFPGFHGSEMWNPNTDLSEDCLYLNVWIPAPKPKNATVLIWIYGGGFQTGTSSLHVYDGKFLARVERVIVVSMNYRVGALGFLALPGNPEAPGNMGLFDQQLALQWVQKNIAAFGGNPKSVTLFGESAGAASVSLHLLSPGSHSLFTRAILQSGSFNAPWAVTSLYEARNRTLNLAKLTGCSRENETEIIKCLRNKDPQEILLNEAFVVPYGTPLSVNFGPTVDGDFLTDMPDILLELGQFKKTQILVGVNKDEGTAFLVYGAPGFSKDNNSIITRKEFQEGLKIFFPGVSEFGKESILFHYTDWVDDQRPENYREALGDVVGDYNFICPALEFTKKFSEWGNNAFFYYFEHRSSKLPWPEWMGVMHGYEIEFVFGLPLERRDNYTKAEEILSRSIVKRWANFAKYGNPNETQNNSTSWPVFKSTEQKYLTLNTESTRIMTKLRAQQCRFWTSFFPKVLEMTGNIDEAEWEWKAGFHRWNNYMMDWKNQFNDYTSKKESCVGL

[7] = Antioxidant activity assessed as trolox equivalent of AAPH-induced radical scavenging activity at 10 uM pretreated for 15 mins followed by APPH challenge measured every minute for 80 mins by ORAC-FL assay; format: functional
[8] = target: Sigma non-opioid intracellular receptor 1 (Cavia porcellus, UniProt Q60492); experiment: Displacement of (+)-[3H]pentazocine from guinea pig brain membrane sigma1 receptor by liquid scintillation counting method
Sigma non-opioid intracellular receptor 1, sequence (Q60492 whole entry): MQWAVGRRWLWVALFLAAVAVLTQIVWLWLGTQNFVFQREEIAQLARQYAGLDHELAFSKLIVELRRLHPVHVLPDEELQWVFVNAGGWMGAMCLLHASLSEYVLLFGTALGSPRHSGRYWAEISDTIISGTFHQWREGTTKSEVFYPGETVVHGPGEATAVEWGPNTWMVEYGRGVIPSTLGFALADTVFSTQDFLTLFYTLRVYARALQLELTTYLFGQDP

[9] = Selectivity ratio of Ki for displacement of [3H]DTG from sigma2 receptor in rat liver membranes to Ki for displacement of (+)-[3H]pentazocine from guinea pig brain membrane sigma1 receptor; format: cell membranes
[10] = target: T6, Sigma intracellular receptor 2 (Rattus norvegicus, UniProt Q5U3Y7); experiment: Displacement of [3H]DTG from sigma2 receptor in rat liver membranes by liquid scintillation counting method; format: cell membranes, Membrane
T6 sequence (Q5U3Y7 whole entry): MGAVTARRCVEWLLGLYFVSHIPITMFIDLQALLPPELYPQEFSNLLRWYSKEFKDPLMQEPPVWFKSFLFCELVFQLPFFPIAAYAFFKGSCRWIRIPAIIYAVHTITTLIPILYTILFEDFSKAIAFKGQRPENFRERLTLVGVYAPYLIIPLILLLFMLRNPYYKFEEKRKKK

[11] = Antioxidant activity assessed as trolox equivalent of AAPH-induced radical scavenging activity pretreated for 15 mins followed by APPH challenge measured every minute for 80 mins by ORAC-FL assay; format: functional

SMILES | inhibition [1] [%] | IC50 [2] [µM] | IC50 (Acetylcholinesterase [3]) [µM] | Papp (in vitro) [×10⁻⁶ cm/s] | Ratio IC50 (Homo sapiens) | IC50 [4] [µM] | IC50 [5] [µM] | Ki (Acetylcholinesterase [6]) [µM] | IC50 (Cholinesterase) [µM] | Activity [7] | Ki [8] [µM] | Ratio Ki [9] | Ki [10] [µM] | Activity (umolequiv/umol) [11]
COc1cc2oc(C(=O)NCCCC3CCN(Cc4ccccc4)CC3)cc(=O)c2cc1OC | 48 | > 100 | 0.11 | 5 | > 91 | > 100 | > 100 | 0.021 | > 10 | inactive | – | – | – | –
COc1cc2nc(C(=O)NCCC3CCN(Cc4ccccc4)CC3)cc(OC)c2cc1OC | – | – | 0.62 | 13 | 14 | – | – | – | 8.79 | – | – | – | – | –
COc1cc2[nH]c(C(=O)NCCC3CCN(Cc4ccccc4)CC3)cc(=O)c2cc1OC | 31 | > 100 | 0.17 | 5.3 | > 59 | > 100 | > 100 | 0.06 | > 10 | inactive | 0.0363 | 13 | 0.487 | –
COc1ccc2c(=O)cc(C(=O)NCCC3CCN(Cc4ccccc4)CC3)[nH]c2c1 | 31 | 56.4 | 0.45 | 10.9 | > 22 | 72.7 | > 100 | – | > 10 | inactive | 0.0452 | 8 | 0.376 | –
COc1cccc2c(=O)cc(C(=O)NCCC3CCN(Cc4ccccc4)CC3)[nH]c12 | 47 | 71.6 | 1.64 | 15.3 | > 6.1 | 52.4 | > 100 | – | > 10 | inactive | – | – | – | –
O=C(NCCC1CCN(Cc2ccccc2)CC1)c1cc(=O)c2ccccc2o1 | 24 | – | 0.11 | 6.7 | 46 | – | > 100 | 0.057 | 5.09 | – | – | – | – | –
COc1ccc2oc(C(=O)NCC3CCN(Cc4ccccc4)CC3)cc(=O)c2c1 | – | – | 3.61 | 6.8 | > 2.8 | – | – | – | > 10 | – | – | – | – | –
COc1ccc2c(=O)cc(C(=O)NCCC3CCN(Cc4ccccc4)CC3)oc2c1 | 31 | > 100 | 0.033 | 7.6 | 300 | > 100 | > 100 | – | 9.9 | – | – | – | – | –
O=C(NC1CCN(Cc2ccccc2)CC1)c1cc(=O)c2cc(O)ccc2o1 | 48 | – | 2.36 | 1.9 | > 4.2 | – | > 100 | – | > 10 | – | – | – | – | –
Nc1ccc2oc(C(=O)NCCC3CCN(Cc4ccccc4)CC3)cc(=O)c2c1 | – | > 100 | 0.041 | 7.6 | 105 | > 100 | 28.9 | 0.062 | 4.3 | – | 0.00145 | 290 | 0.421 | 0.9

— ChEMBL document CHEMBL4270563, “Neurogenic and neuroprotective donepezil-flavonoid hybrids with sigma-1 affinity and inhibition of key enzymes in Alzheimer's disease” (Eur J Med Chem, 2018)
